15 compounds from PubChem BioAssay (NCI) can be followed below.

The structures appear in SMILES notation. Values joined by “and” are separate entries in the source; they are usually repeats but may differ in a detail not shown here. Equal values may be shown once.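 Values below derive from 48-hour exposures of cells grown in 96-well plates, with endpoints linearly interpolated between the two concentrations bracketing the appropriate inhibition level. GI50 is the concentration that inhibits growth by half. Definition used: TGI = concentration required for complete inhibition of growth.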 Some results are limits rather than exact numbers.

Common to all, as to assay: NCI anticancer screen, dose series, 48 h
For assay [1], the system named is HL-60(TB) leukemia.
Assay [2] has as its system SNB-75 CNS.
For assay [3], the system named is MOLT-4 leukemia.
Assay [4] deals with OVCAR-8 ovarian.
For assay [5], the system named is SR leukemia.
Assay [6] concerns SN12C renal.
For assay [7], the system named is HS 578T breast.
The subject of assay [8] is MDA-MB-435.
Assay [9] deals with PC-3 prostate.
In assay [10] the test system is T-47D breast.

For `Cc1nn(C)c2ncnc(N/N=C/c3cccc(O)c3O)c12`, the GI50 is 322 nM in assay [1]; 0.548 µM in assay [2]; 323 nM in assay [3]; 0.413 µM in assay [4]; 269 nM in [5]; 0.481 µM in assay [6]. Further, the GI50 is 2.29 µM in [7], 0.609 µM in assay [8], 0.545 µM in assay [9] and 3.25 µM in assay [10]. The TGI was 1.43 µM in assay [1]; 6.8 µM in assay [2]; 28.7 µM in [3]; above 100 µM in assay [4]; 16.3 µM in assay [5]; above 100 µM in assay [6]. Also, the TGI in [7], in assay [8], in [9] and in assay [10] was above 100 µM each time.
Regarding `O=C1NC(=O)C(=Cc2cn(Cc3ccccc3)c3ccccc23)C(=O)N1`, the GI50 in assay [1] is 21400 nM; in assay [2], 7.61 µM; in [3], 12900 nM; in assay [4], 17.1 µM; in assay [5], 10600 nM; in assay [6] it was 13.5 µM. In addition, the GI50 in [7] is 8.71 µM; in [8] it was 17.9 µM; in assay [9], 11.4 µM; in assay [10], 4.09 µM. In addition, the TGI was determined as 81.6 µM in assay [1]; 27.1 µM in assay [2]; 32.9 µM in assay [3]; 43.8 µM in assay [4]; 30.5 µM in assay [5]; 40 µM in assay [6]. Also, the TGI was 29.3 µM in assay [7], 42.3 µM in assay [8], 30.8 µM in assay [9] and 20 µM in assay [10].
As for `COC1=C(OC)C(=O)C(C/C=C(\C)CC/C=C(\C)CC/C=C(\C)CC/C=C(\C)CC/C=C(\C)CC/C=C(\C)CC/C=C(\C)CC/C=C(\C)CC/C=C(\C)CCC=C(C)C)=C(C)C1=O`, the GI50 in assay [1] is above 100000 nM; in assay [2], above 100 µM; in assay [3], above 100000 nM; in assay [4], above 100 µM; in assay [5] it was above 100000 nM; in [6], above 100 µM. Moreover, the GI50 in assay [7], in assay [8], in assay [9] and in [10] was above 100 µM in each case. Moreover, the TGI in assay [1], in assay [2], in assay [3], in assay [4], in assay [5] and in [6] was above 100 µM in each case. Moreover, the TGI in assay [7], in assay [8], in [9] and in assay [10] was above 100 µM each time.
Consider `COc1c(OC)c(OC)c2c(=O)cc(-c3ccc(OC(C)C)cc3)oc2c1OC`, for which the TGI in assay [1] is 13 µM; in [2], above 49.9 µM; in assay [3], 23.8 µM; in assay [4], 49.5 µM; in assay [5], above 26.2 µM; in assay [6] it was above 53.4 µM. The TGI in assay [7] is 52.5 µM; in [8] it was above 53.5 µM; in [9] it was above 100 µM; in assay [10] it was 42.5 µM.
As to `Cc1c(Nc2nccc3cc(CN4CC[C@@H](O)C4)cnc23)cccc1-c1cccc(-c2nc3cc(CN4CC[C@@H](C(=O)O)C4)cc(C#N)c3o2)c1C`, the GI50 is 9930 nM in assay [1]; 15.1 µM in assay [2]; 2720 nM in assay [3]; 12.4 µM in assay [4]; 2950 nM in [5]; 20.1 µM in assay [6]. In addition, the GI50 is 15.1 µM in assay [7], 15.3 µM in [8], 4.17 µM in [9] and above 100 µM in assay [10]. Further, the TGI in assay [1] is 59.7 µM; in assay [2], above 100 µM; in assay [3] it was 9.08 µM; in assay [4] it was 36.2 µM; in assay [5], 24.7 µM; in assay [6], above 100 µM. For the same compound, the TGI is above 100 µM in [7], 35.1 µM in assay [8], above 100 µM in assay [9] and above 100 µM in assay [10].
Turning to `CCN1CCN(c2cc(C(=O)Nc3cccc(Nc4ccc5c(OC)cccc5n4)c3)cc(C(F)(F)F)c2)CC1`, the GI50 in assay [1] is 3820 nM; in assay [2] it was 1.05 µM; in [3], 616 nM; in assay [4], 1.97 µM; in [5] it was 883 nM; in assay [6], 1.4 µM. Besides, the GI50 in assay [7] was 3.61 µM; in assay [8] it was 1.16 µM; in assay [9], 0.805 µM; in [10], 2.05 µM. Further, the TGI came out at 11.4 µM in [1]; 5.36 µM in assay [2]; 12.3 µM in assay [3]; 7.64 µM in assay [4]; 11.7 µM in assay [5]; 5.57 µM in assay [6]. In addition, the TGI worked out at 11.9 µM in [7], 4.93 µM in assay [8], 2.5 µM in assay [9] and 11.7 µM in assay [10].
Regarding `CN1CCN(CCCOc2ccc3nc(Nc4ccc(F)c(F)c4)ccc3c2)CC1`, the GI50 in assay [1] was 1260 nM; in assay [2], 1.35 µM; in [3], 2370 nM; in [4], 3.6 µM; in assay [5], 1710 nM; in assay [6], 2.97 µM. For the same compound, the GI50 is 1.82 µM in [7], 1.68 µM in [8], 1.72 µM in assay [9] and 1.88 µM in assay [10]. The TGI was determined as 4.2 µM in [1]; 4.05 µM in assay [2]; 7.76 µM in assay [3]; 12.5 µM in assay [4]; 6.95 µM in assay [5]; 11.8 µM in assay [6]. The TGI in [7] came to 5.43 µM; in [8], 3.36 µM; in assay [9] it was 3.72 µM; in assay [10], 8.79 µM.
For the compound `COc1cc(S(=O)(=O)Nc2nc(-c3ccc(N4C(=O)C(C)SC4c4ccccc4O)cc3)cs2)ccc1Cl` (centres undefined), the GI50 was 38000 nM in [1]; 42.4 µM in [2]; 34400 nM in assay [3]; 42.2 µM in [4]; 43300 nM in [5]; 47.4 µM in assay [6]. Also, the GI50 in assay [7] was 43.1 µM; in assay [8], 43.6 µM; in [9] it was 30.1 µM; in [10], 28.8 µM. Moreover, the TGI in assay [1], in assay [2], in [3], in assay [4], in assay [5] and in assay [6] was above 100 µM in each case. The TGI in [7], in assay [8], in [9] and in assay [10] was above 100 µM throughout.
`CC(C)=Cc1cc(C)c2ccc(C)c3c2c1C(C)=C(O)C3=O`: the GI50 is 2990 nM in assay [1]; above 100 µM in [2]; 1190 nM in assay [3]; 36.6 µM in [4]; 1460 nM in assay [5]; 24.3 µM in assay [6]. The GI50 in assay [7] is 25.7 µM; in assay [8], 27.5 µM; in assay [9] it was 12.6 µM; in assay [10] it was 16.9 µM. Besides, the TGI in assay [1] is 9.9 µM; in [2] it was above 100 µM; in assay [3], 6.05 µM; in [4], above 100 µM; in [5], 4.17 µM; in [6], 61.6 µM. Moreover, the TGI in [7] was 74.9 µM; in [8], 73.7 µM; in [9], 37.8 µM; in [10], 52.8 µM.
As to `O=C1NC(=O)C(c2cccc(Cl)c2)=C1Nc1ccc(Cl)c(C(=O)O)c1`, the GI50 in [1] was above 25000 nM; in [2], above 25 µM; in assay [3] it was above 25000 nM; in assay [4], above 25 µM; in assay [5], above 25000 nM; in assay [6], above 25 µM. The GI50 in [7], in assay [8], in [9] and in [10] was above 25 µM in each case. The TGI in assay [1], in assay [2], in assay [3], in assay [4], in assay [5] and in [6] was above 25 µM in each case. The TGI in assay [7], in [8], in assay [9] and in assay [10] was above 25 µM each time.
Regarding `CC(C)C[C@H](NC(=O)Cn1cccc(CNC(=O)c2ccccc2)c1=O)B(O)O`, the GI50 is 653 nM in [1]; 0.32 µM in [2]; 289 nM in [3]; 4.23 µM in [4]; 304 nM in assay [5]; 0.811 µM in [6]. The GI50 is 0.335 µM in assay [7], 0.158 µM in [8], 3.08 µM in assay [9] and 0.335 µM in [10]. Besides, the TGI in assay [1] is above 100 µM; in assay [2], 2.33 µM; in assay [3], above 100 µM; in assay [4], above 85.7 µM; in assay [5], above 100 µM; in [6], 11.3 µM. Also, the TGI in [8] was 0.355 µM; in assay [9], above 59.1 µM; in assay [10], 2.82 µM.
As for `COc1cc(F)c(F)cc1C(=O)c1cnc(NC2CCN(S(C)(=O)=O)CC2)nc1N`, the GI50 in assay [1] was 2010 nM; in assay [2], 3.83 µM; in [3] it was 3400 nM; in [4], 4.43 µM; in assay [5], 1230 nM; in assay [6] it was 4.49 µM. Further, the GI50 in assay [7] was 4.71 µM; in assay [8], 3.55 µM; in assay [9], 2 µM; in [10], 4.58 µM. In addition, the TGI is 10 µM in [1]; 10.9 µM in [2]; 20.4 µM in [3]; above 25 µM in [4]; 10.2 µM in assay [5]; above 25 µM in assay [6]. Besides, the TGI in [7] is above 21.8 µM; in assay [8], above 25 µM; in [9] it was above 25 µM; in assay [10], 23.8 µM.
Regarding `CC(C)C1(NC(=O)C2CC3c4cccc5[nH]cc(c45)CC3N(C)C2)OC2(O)C3CCCN3C(=O)C(Cc3ccccc3)N2C1=O` (centres undefined), the TGI was 24.9 µM in assay [1]; 86.8 µM in [2]; 80.4 µM in assay [3]; above 100 µM in assay [4]; 41.2 µM in assay [5]; above 100 µM in assay [6]. The TGI in [7], in assay [8], in [9] and in assay [10] was above 100 µM each time.
With `Cc1ccc2oc(=O)c3c(O)c4cccc(OC5OC(C)C6O[C@@H](c7ccccc7)OC6C5OC5OC(C)C(O)C(O)C5O)c4c4oc(=O)c1c2c34` (some centres undefined), the GI50 is 41.8 nM in assay [1]; 4.36 nM and 13.7 nM in assay [3]; 0.0562 µM in assay [4]; 17.4 nM in assay [5]; 0.251 µM in assay [6]. The TGI in [1] is 0.7 µM and 0.361 µM; in assay [2], 1.54 µM; in [3], 0.109 µM and 0.161 µM; in assay [4], 2.74 µM and 1.43 µM; in [5] it was below 0.0472 µM; in assay [6] it was 1.76 µM and 4.73 µM. Besides, the TGI came out at 1.97 µM in [7], 1.9 µM in assay [8], 1.4 µM in assay [9] and 1.23 µM in assay [10].
For `O=C1C=CC(=O)c2c1ccc1c3ccccc3n(Cc3ccccc3)c21`, the TGI in assay [1] is 15.3 µM; in assay [2], above 100 µM; in [3] it was above 38.4 µM; in assay [4], above 100 µM; in [5], above 28.7 µM; in assay [6], 42.9 µM. For the same compound, the TGI in assay [7] is above 100 µM; in assay [8] it was above 56.8 µM; in assay [9], 53.3 µM; in [10], 64.6 µM.
